Laboratory results from US20220169632A1, “METHODS AND MATERIALS FOR INCREASING OR MAINTAINING NICOTINAMIDE MONONUCLEOTIDE ADENYLYL TRANSFERASE-2 (NMNAT2) POLYPEPTIDE LEVELS” (University of Pittsburgh - Of the Commonwealth System of …, priority 2019, published 2022).

Tested on: NMNAT2
Assay: NMNAT2-Hibit nano-luciferase activity in stably transfected U87MG cells, various concentrations, 24 hours
Type: cell-based
Settings: U87MG cells stably transfected with NMNAT2-Hibit luc plasmid
Experimental: Selected compounds were tested in vitro. U87MG cells were stably transfected with NMNAT2-Hibit luc plasmid. Cells were treated with a test compound at various concentrations for 24 hours. Cells were then collected and assayed for nano-luciferase activity.

Row | SMILES | E: compound efficacy for NMNAT2 activation (concentration giving >25% increase in NMNAT2 luciferase activity)
1 | Cc1ccccc1Cn1cc(CCCC(=O)Nc2cccc(C)c2C)c2ccccc21 [BC20161] | ++ (“++” >25% increase in NMNAT2 luciferase activity at >1 μM ≤25 μM.)
2 | CCCCN(CC)Cc1ccc(CNC(=O)CCCc2cn(Cc3ccccc3C)c3ccccc23)o1 [BC20162] | +++ (“+++” >25% increase in NMNAT2 luciferase activity at ≤1 μM.)
3 | Cc1cccc(Cn2cc(CCCC(=O)NCc3ccco3)c3ccccc32)c1 [BC20163] | +++ (“+++” >25% increase in NMNAT2 luciferase activity at ≤1 μM.)
4 | Cc1cccc(Cn2cc(CCCC(=O)NCc3ccc(C)o3)c3ccccc32)c1 [BC20164] | +++ (“+++” >25% increase in NMNAT2 luciferase activity at ≤1 μM.)
5 | Cc1cccc(Cn2cc(CCCC(=O)NCc3ccccc3F)c3ccccc32)c1 [BC20165] | +++ (“+++” >25% increase in NMNAT2 luciferase activity at ≤1 μM.)
6 | Cc1cccc(Cn2cc(CCCC(=O)NCc3cccc(F)c3)c3ccccc32)c1 [BC20166] | ++ (“++” >25% increase in NMNAT2 luciferase activity at >1 μM ≤25 μM.)
7 | Cc1cccc(Cn2cc(CCCC(=O)NCc3ccccc3C)c3ccccc32)c1 [BC20167] | +++ (“+++” >25% increase in NMNAT2 luciferase activity at ≤1 μM.)
8 | Cc1cccc(CNC(=O)CCCc2cn(Cc3cccc(C)c3)c3ccccc23)c1 [BC20168] | ++ (“++” >25% increase in NMNAT2 luciferase activity at >1 μM ≤25 μM.)
9 | COc1cccc(CNC(=O)CCCc2cn(Cc3cccc(C)c3)c3ccccc23)c1 [BC20169] | ++ (“++” >25% increase in NMNAT2 luciferase activity at >1 μM ≤25 μM.)
10 | Cc1cccc(Cn2cc(CCCC(=O)N3CCN(C(=O)c4ccco4)CC3)c3ccccc32)c1 [BC20170] | ++ (“++” >25% increase in NMNAT2 luciferase activity at >1 μM ≤25 μM.)
11 | Cc1cccc(Cn2cc(CCCC(=O)NC(C)Cc3ccco3)c3ccccc32)c1 (centres unmarked) [BC20171] | +++ (“+++” >25% increase in NMNAT2 luciferase activity at ≤1 μM.)
12 | Cc1cccc(Cn2cc(CCCC(=O)NCCc3ccccc3)c3ccccc32)c1 [BC20172] | ++ (“++” >25% increase in NMNAT2 luciferase activity at >1 μM ≤25 μM.)
13 | Cc1cccc(Cn2cc(CCCC(=O)NCc3cccnc3)c3ccccc32)c1 [BC20173] | ++ (“++” >25% increase in NMNAT2 luciferase activity at >1 μM ≤25 μM.)
14 | Cc1cccc(Cn2cc(CCCC(=O)NCc3ccncc3)c3ccccc32)c1 [BC20174] | ++ (“++” >25% increase in NMNAT2 luciferase activity at >1 μM ≤25 μM.)
15 | Cc1cccc(Cn2cc(CCCC(=O)Nc3cccc(C)c3C)c3ccccc32)c1 [BC20175] | ++ (“++” >25% increase in NMNAT2 luciferase activity at >1 μM ≤25 μM.)
16 | Cc1ccc(CNC(=O)Cn2cc(C(=O)c3ccc(Cl)cc3)c3ccccc32)o1 [BC20176] | ++ (“++” >25% increase in NMNAT2 luciferase activity at >1 μM ≤25 μM.)
17 | O=C(Cn1cc(C(=O)c2ccc(Cl)cc2)c2ccccc21)NCc1ccccc1F [BC20177] | +++ (“+++” >25% increase in NMNAT2 luciferase activity at ≤1 μM.)
18 | Cc1ccccc1CNC(=O)Cn1cc(C(=O)c2ccc(Cl)cc2)c2ccccc21 [BC20178] | ++ (“++” >25% increase in NMNAT2 luciferase activity at >1 μM ≤25 μM.)
19 | Cc1cccc(CNC(=O)Cn2cc(C(=O)c3ccc(Cl)cc3)c3ccccc32)c1 [BC20179] | ++ (“++” >25% increase in NMNAT2 luciferase activity at >1 μM ≤25 μM.)
20 | COc1ccccc1CNC(=O)Cn1cc(C(=O)c2ccc(Cl)cc2)c2ccccc21 [BC20180] | ++ (“++” >25% increase in NMNAT2 luciferase activity at >1 μM ≤25 μM.)
21 | COc1cccc(CNC(=O)Cn2cc(C(=O)c3ccc(Cl)cc3)c3ccccc32)c1 [BC20181] | ++ (“++” >25% increase in NMNAT2 luciferase activity at >1 μM ≤25 μM.)
22 | O=C(c1ccc(Cl)cc1)c1cn(CC(=O)N2CCN(C(=O)c3ccco3)CC2)c2ccccc12 [BC20182] | + (“+” >25% increase in NMNAT2 luciferase activity at >25 μM.)
23 | Cc1ccc(C)c(Cn2c3c(c4ccccc42)CC(C(=O)NCc2ccc(C)o2)CC3)c1 (centres unmarked) [BC20183] | + (“+” >25% increase in NMNAT2 luciferase activity at >25 μM.)
24 | Cc1ccc(C)c(Cn2c3c(c4ccccc42)CC(C(=O)NCc2cccc(F)c2)CC3)c1 (centres unmarked) [BC20184] | + (“+” >25% increase in NMNAT2 luciferase activity at >25 μM.)

Row | SMILES | E: compound efficacy for NMNAT2 activation (concentration giving >25% increase in NMNAT2 luciferase activity)
25 | Cc1ccc(C)c(Cn2c3c(c4ccccc42)CC(C(=O)NCc2ccccc2C)CC3)c1 (centres unmarked) [BC20185] | ++ (“++” >25% increase in NMNAT2 luciferase activity at >1 μM ≤25 μM.)
26 | Cc1cccc(CNC(=O)C2CCc3c(c4ccccc4n3Cc3cc(C)ccc3C)C2)c1 (centres unmarked) [BC20186] | + (“+” >25% increase in NMNAT2 luciferase activity at >25 μM.)
27 | COc1ccccc1CNC(=O)C1CCc2c(c3ccccc3n2Cc2cc(C)ccc2C)C1 (centres unmarked) [BC20187] | + (“+” >25% increase in NMNAT2 luciferase activity at >25 μM.)
28 | COc1cccc(CNC(=O)C2CCc3c(c4ccccc4n3Cc3cc(C)ccc3C)C2)c1 (centres unmarked) [BC20188] | ++ (“++” >25% increase in NMNAT2 luciferase activity at >1 μM ≤25 μM.)
29 | Cc1ccc(C)c(Cn2c3c(c4ccccc42)CC(C(=O)NCc2cccnc2)CC3)c1 (centres unmarked) [BC20189] | ++ (“++” >25% increase in NMNAT2 luciferase activity at >1 μM ≤25 μM.)
30 | Cc1ccc(C)c(Cn2c3c(c4ccccc42)CC(C(=O)NCc2ccncc2)CC3)c1 (centres unmarked) [BC20190] | + (“+” >25% increase in NMNAT2 luciferase activity at >25 μM.)
31 | Cc1ccc(Cn2cc(C3=CC(=O)NCC3)c3ccccc32)cc1 [BC20191] | ++ (“++” >25% increase in NMNAT2 luciferase activity at >1 μM ≤25 μM.)
32 | Cc1ccc(Cn2cc(C3CCNC(=O)C3)c3ccccc32)cc1 (centres unmarked) [BC20192] | ++ (“++” >25% increase in NMNAT2 luciferase activity at >1 μM ≤25 μM.)
33 | Cc1ccc(CNC(=O)c2ccc3c(c2)c(C)c(C)n3Cc2ccccc2F)o1 [BC20193] | + (“+” >25% increase in NMNAT2 luciferase activity at >25 μM.)
34 | Cc1c(C)n(Cc2ccccc2F)c2ccc(C(=O)NCC3CCCO3)cc12 (centres unmarked) [BC20194] | + (“+” >25% increase in NMNAT2 luciferase activity at >25 μM.)
35 | Cc1cccc(CNC(=O)c2ccc3c(c2)c(C)c(C)n3Cc2ccccc2F)c1 [BC20195] | + (“+” >25% increase in NMNAT2 luciferase activity at >25 μM.)
36 | COc1cccc(CNC(=O)c2ccc3c(c2)c(C)c(C)n3Cc2ccccc2F)c1 [BC20196] | + (“+” >25% increase in NMNAT2 luciferase activity at >25 μM.)
37 | Cc1c(C)n(Cc2ccccc2F)c2ccc(C(=O)NCc3ccncc3)cc12 [BC20197] | ++ (“++” >25% increase in NMNAT2 luciferase activity at >1 μM ≤25 μM.)
38 | CCCCN(CC)Cc1ccc(CNC(=O)c2ccc3c(c2)c(C)c(C)n3Cc2ccccc2F)o1 [BC20198] | +++ (“+++” >25% increase in NMNAT2 luciferase activity at ≤1 μM.)
39 | Cc1ccccc1Cn1c(C)c(C)c2cc(C(=O)NCc3ccco3)ccc21 [BC20199] | ++ (“++” >25% increase in NMNAT2 luciferase activity at >1 μM ≤25 μM.)
40 | Cc1ccc(CNC(=O)c2ccc3c(c2)c(C)c(C)n3Cc2ccccc2C)o1 [BC20200] | ++ (“++” >25% increase in NMNAT2 luciferase activity at >1 μM ≤25 μM.)
41 | Cc1ccccc1Cn1c(C)c(C)c2cc(C(=O)NCC3CCCO3)ccc21 (centres unmarked) [BC20201] | + (“+” >25% increase in NMNAT2 luciferase activity at >25 μM.)
42 | Cc1ccccc1Cn1c(C)c(C)c2cc(C(=O)NCc3cccc(F)c3)ccc21 [BC20202] | ++ (“++” >25% increase in NMNAT2 luciferase activity at >1 μM ≤25 μM.)
43 | Cc1ccccc1CNC(=O)c1ccc2c(c1)c(C)c(C)n2Cc1ccccc1C [BC20203] | ++ (“++” >25% increase in NMNAT2 luciferase activity at >1 μM ≤25 μM.)
44 | Cc1cccc(CNC(=O)c2ccc3c(c2)c(C)c(C)n3Cc2ccccc2C)c1 [BC20204] | ++ (“++” >25% increase in NMNAT2 luciferase activity at >1 μM ≤25 μM.)
45 | COc1cccc(CNC(=O)c2ccc3c(c2)c(C)c(C)n3Cc2ccccc2C)c1 [BC20205] | + (“+” >25% increase in NMNAT2 luciferase activity at >25 μM.)
46 | Cc1ccccc1Cn1c(C)c(C)c2cc(C(=O)N3CCN(C(=O)c4ccco4)CC3)ccc21 [BC20206] | + (“+” >25% increase in NMNAT2 luciferase activity at >25 μM.)
47 | Cc1ccccc1Cn1c(C)c(C)c2cc(C(=O)NC(C)Cc3ccco3)ccc21 (centres unmarked) [BC20207] | + (“+” >25% increase in NMNAT2 luciferase activity at >25 μM.)
